Results reported in US6994862B2, “Formulation solubilizing water-insoluble agents and preparation method thereof” (Korea Institute of Science and Technology, priority 2000, dated 2006).

Assay: Release experiment of a pharmaceutical compound (dialysis bag, PBS pH 7.4, 37° C.)
Format: physicochemical
Details: within 5 hr; dialysis bag in PBS pH 7.4, 37° C.
Procedure: Dispersion was prepared by mixing 250 μL of the above liquid formulation with 1.75 mL of distilled water and shaken manually. The mixture was then added into a dialysis bag (MWCO=3,500, Spectra/Por^R, Spectrum Medical Industries, Inc., USA), both ends were tied with a closure, and placed into a 50 ml conical tube containing 10 ml of phosphate buffered saline (PBS, pH=7.4). The conical tube was placed in a 37° C. shaking water bath for the release experiment. The PBS solution located outside the dialysis tube was collected at regular intervals to analyze concentration of the pharmaceutical compound released from the dialysis bag by using Fluorescence spectroscopy (λex=370 nm, λem=480 nm). An aqueous solution where 0.7 mg of rifampicin was dissolved in 2 mL of distilled water was used as a control.
Release experiment was performed using the liquid formulation manufactured the same as in the experimental Example 1 with the exception that 0.7 mg of bromocresol green was used in place of rifampicin. The released drug was collected from the PBS solution and subsequently analyzed for its absorbance at 617 nm. An aqueous solution, where 0.7 mg of bromocresol green was dissolved in 2 mL of distilled water, was used as a control.

drug released: more than 80%
Structure (SMILES): Cc1c(C2(c3cc(Br)c(O)c(Br)c3C)OS(=O)(=O)c3ccccc32)cc(Br)c(O)c1Br [bromocresol green]
